Experiments:
AChE = AChE (Homo sapiens, UniProt P22303); assay: Synergism of antipsychotics with donepezil/rivastigmine (binary mixtures), AChE; settings: ComboSyn;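 further: antipsychotic concentration kept fixed across all measurements, selected from estimated therapeutic plasma levels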
Source text: (§6) In turn, the concentrations of antipsychotics were constant in every measurement, and were chosen on the basis of estimated therapeutic plasma concentrations.
(§7) Automatic simulation of synergism and antagonism at all doses or effect levels is possible by computer software, based on algorithms. Calculation of the combination index (CI) and isobologram analyses enable to quantitatively determine drug interactions, where CI < 1, =1 and >1 indicate synergism, additive effect and antagonism, respectively. […] The software also allowed us to display the dose–effect curve, the median–effect plot and the dose-reduction index (DRI) plot [36].

[1] = biological target: T1, recombinant human β-amyloid (1–42) (Homo sapiens, UniProt P05067); assay: Beta-amyloid aggregation, Thioflavin T fluorescence; assay type: biochemical
T1 construct: recombinant human β-amyloid (1–42; ultrapure); purchased Sigma-Aldrich (St. Louis, MO, USA)
T1 sequence (P05067 672-713 limits assumed): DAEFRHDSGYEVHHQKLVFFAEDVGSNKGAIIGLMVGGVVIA
Protocol: Aβ42 peptide was dissolved in DMSO and left to hydrate for a few minutes. The solution was centrifuged at 10,000 rpm for 5 min at 4 °C to separate any precipitated material. The solution at a concentration of 220 μmol/L was stored in small aliquots at a temperature of −30 °C and before each experiment it was restored at 37 °C for 15 min. Test samples containing Aβ42 solution at the final concentration of 20 μmol/L was incubated with antipsychotics at concentrations equaling their TPC and 1/2 × TPC (v = 10 µL). The final volume of the test samples was 100 μL. The positive control constituted a sample of Aβ42 peptide, whereas the negative control contained tannic acid at the final concentrations of 0.1 µmol/L and 10 µmol/L. The fibrillation reaction was set up by addition of thioflavin ThT dye at a concentration of 5 µmol/L. The fluorescence intensity was measured at room temperature with Ex/Em = 440 nm/484 nm (Synergy H1; BioTek, Winooski, VT, USA). The measurements of fluorescence intensity expressed as relative fluorescence units (RFU) were taken at 10, 30, 60 and 90 min and then after 24 and 48 h. The fluorescence intensity measured for control equaled 100% of Aβ aggregation and it was used to estimate the inhibitory properties of the tested antipsychotics.

BuChE = BuChE (Homo sapiens, UniProt P06276); assay: Synergism of antipsychotics with donepezil/rivastigmine (binary mixtures), BuChE;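 further: combination index derived by median-effect analysis of combined drug effects on the cholinesterase, with values below 1 meaning synergism, exactly 1 additivity and above 1 antagonism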
Sequence of BuChE (P06276 29-602): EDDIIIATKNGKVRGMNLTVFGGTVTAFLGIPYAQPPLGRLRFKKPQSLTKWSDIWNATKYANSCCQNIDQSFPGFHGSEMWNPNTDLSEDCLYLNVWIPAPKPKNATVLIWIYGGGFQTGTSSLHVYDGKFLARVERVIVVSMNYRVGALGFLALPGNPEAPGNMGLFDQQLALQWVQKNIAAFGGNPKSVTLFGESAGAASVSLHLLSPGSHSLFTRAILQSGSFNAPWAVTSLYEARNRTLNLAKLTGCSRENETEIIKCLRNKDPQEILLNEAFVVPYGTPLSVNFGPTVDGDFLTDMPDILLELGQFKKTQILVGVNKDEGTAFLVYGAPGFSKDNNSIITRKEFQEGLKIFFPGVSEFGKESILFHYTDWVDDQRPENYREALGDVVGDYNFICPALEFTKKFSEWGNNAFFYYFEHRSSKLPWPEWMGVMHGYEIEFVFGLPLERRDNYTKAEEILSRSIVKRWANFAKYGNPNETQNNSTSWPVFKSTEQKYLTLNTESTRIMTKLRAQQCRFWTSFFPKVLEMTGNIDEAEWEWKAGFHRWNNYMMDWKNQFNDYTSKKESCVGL
Source text: as §6, §7

[2] = biological target: T2, human plasma butyrylcholinesterase (Homo sapiens, UniProt P06276); assay: BuChE inhibition, modified Ellman's method; assay type: biochemical
T2 construct: The solution of plasma 200-fold diluted with 0.9% NaCl; from tissue; host or cells: citrated plasma from blood of healthy human donors
T2 sequence (P06276 29-602): as above
Protocol: (§1) The activity of both cholinesterases (AChE and BuChE) were assessed spectrophotometrically according to the Ellman’s method with some modifications by Worek et al.. This test development included experimental determination of the optimal testing conditions. For all measurements, 37 °C was used as the best temperature for enzymatic determinations in material of human origin.
(§2) The solution of plasma 200-fold diluted with 0.9% NaCl and solution of hemolyzed erythrocytes diluted 400-fold with 0.9% were incubated (37 °C, 15 min) with 5 μL DTNB (0.01 mol/L) and 10 μL tested compound at a wider range of concentration than the therapeutic range in order to assess the overall effect of the compound on human esterases (AChE and BuChE). The controls without antipsychotics, containing only DTNB and diluted plasma or diluted solution of hemolyzed erythrocytes, were prepared. […] The final volume of a sample was 500 μL. […] The maximal velocity of the reaction was determined on the basis of changes in absorbance over time.
(§3) AChE SI (selectivity index) was calculated by using the following formula: SI = IC50 of BuChE/IC50 of AChE. However, BuChE SI was defined as IC50 of AChE/IC50 of BuChE. Maximal velocity (Vmax) and the Michaelis constant (Km) were calculated with the use of linear regression—according to the Hanes–Woolf plot.

[3] = biological target: T3, human erythrocyte acetylcholinesterase (Homo sapiens, UniProt P22303); assay: AChE inhibition, modified Ellman's method; assay type: biochemical; settings: for AChE reaction velocity: control 0.263 ± 0.011 A/min
T3 construct: solution of hemolyzed erythrocytes diluted 400-fold; from tissue; host or cells: hemolyzed erythrocytes from blood of healthy human donors
T3 sequence (P22303 32-617 isoform P22303-2 limits assumed): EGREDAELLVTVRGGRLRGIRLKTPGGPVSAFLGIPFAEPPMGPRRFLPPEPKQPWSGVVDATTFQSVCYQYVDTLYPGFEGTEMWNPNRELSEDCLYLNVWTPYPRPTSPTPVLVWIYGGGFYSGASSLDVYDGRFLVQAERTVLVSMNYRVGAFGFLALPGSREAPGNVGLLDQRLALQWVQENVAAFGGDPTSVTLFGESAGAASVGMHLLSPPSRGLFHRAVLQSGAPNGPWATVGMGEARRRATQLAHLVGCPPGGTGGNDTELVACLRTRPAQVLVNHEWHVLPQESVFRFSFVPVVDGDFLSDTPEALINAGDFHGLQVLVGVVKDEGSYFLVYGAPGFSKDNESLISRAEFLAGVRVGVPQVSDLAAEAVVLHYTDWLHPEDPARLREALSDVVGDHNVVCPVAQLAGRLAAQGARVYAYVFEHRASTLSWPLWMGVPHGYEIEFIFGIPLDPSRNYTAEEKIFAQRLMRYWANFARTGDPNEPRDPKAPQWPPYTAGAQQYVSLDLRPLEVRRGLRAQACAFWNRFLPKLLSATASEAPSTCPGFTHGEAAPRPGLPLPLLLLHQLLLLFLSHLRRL
Protocol: as §1, §2, §3

astrocytes = assay: WST-1 viability under AAPH-induced oxidative stress, astrocytes; assay type: cell-based, human
Protocol: (§4) WST-1 assay (Takara, Takara Bio Europe, Saint-Germain-en-Laye, France) was used to assess the effects of antipsychotics on the growth of HUVEC and astrocytes. The experiments were conducted as described previously. HUVEC were seeded at a density of 7500 cells, and astrocytes at 5000 cells per well on 96-well microplates and cultured for 24 h followed by treatment with compounds at ½ × TPCmax and TPCmax or pure medium as a control (v = 100 μL) for another 24 h (37 °C, 5% CO2). Subsequently, the cells were washed with culture medium (100 μL) and WST-1 reagent diluted in medium (10 μL of reagent + 90 μL of medium) was added. The plates were incubated at 37 °C in 5% CO2 for another 90 min for HUVEC and 60 min for astrocytes. The absorbance was read at 450 nm using a microplate reader (iMARK, Bio-Rad, Hercules, CA, USA). The cells viability was expressed as a percentage of the control samples which constituted 100% viability.
(§5) Moreover, the WST-1 assay was used to evaluate potential protective effects of antipsychotics on the growth of HUVEC and astrocytes under conditions of AAPH-induced oxidative stress. The experimental conditions were the same as in viability studies. AA at the final concentration of 10 μg/mL was used as an antioxidant control. After reaching the confluence, the antipsychotics were added at concentrations equaling ½ × TPCmax and TPCmax. After 1 h incubation under standard conditions, 50 μL AAPH was added to the wells containing tested compounds or AA. The AAPH concentration was chosen on the basis of preliminary experiments—17.5 mmol/L in HUVEC experiments, and 15.0 mmol/L in the case of astrocytes.

HUVEC cells = assay: WST-1 viability under AAPH-induced oxidative stress, HUVEC; assay type: cell-based, human; settings: AAPH 17.5 mmol/L; for viability of HUVEC under AAPH: relative to pure medium control
Protocol: as §4, §5

[4] = donepezil 0.005 μmol/L + antipsychotic at TPCmax, CI < 1 synergism, > 1 antagonism
[5] = donepezil 0.01 μmol/L + antipsychotic at TPCmax
[6] = donepezil 0.02 μmol/L + antipsychotic at TPCmax
[7] = donepezil 0.05 μmol/L + antipsychotic at TPCmax
[8] = donepezil 0.1 μmol/L + antipsychotic at TPCmax
[9] = rivastigmine 5 μmol/L + antipsychotic at TPCmax
[10] = rivastigmine 10 μmol/L + antipsychotic at TPCmax
[11] = rivastigmine 15 μmol/L + antipsychotic at TPCmax
[12] = rivastigmine 25 μmol/L + antipsychotic at TPCmax
[13] = rivastigmine 40 μmol/L + antipsychotic at TPCmax
[14] = rivastigmine 50 μmol/L + antipsychotic at TPCmax
[15] = rivastigmine 75 μmol/L + antipsychotic at TPCmax
[16] = rivastigmine 100 μmol/L + antipsychotic at TPCmax
[17] = donepezil 2 μmol/L + antipsychotic at TPCmax, ComboSyn
[18] = donepezil 5 μmol/L + antipsychotic at TPCmax, ComboSyn
[19] = donepezil 10 μmol/L + antipsychotic at TPCmax, ComboSyn
[20] = donepezil 20 μmol/L + antipsychotic at TPCmax, ComboSyn
[21] = donepezil 50 μmol/L + antipsychotic at TPCmax, ComboSyn
[22] = donepezil 100 μmol/L + antipsychotic at TPCmax, ComboSyn
[23] = rivastigmine 0.05 μmol/L + antipsychotic at TPCmax, ComboSyn
[24] = rivastigmine 0.1 μmol/L + antipsychotic at TPCmax, ComboSyn
[25] = rivastigmine 0.25 μmol/L + antipsychotic at TPCmax, ComboSyn
[26] = rivastigmine 0.5 μmol/L + antipsychotic at TPCmax, ComboSyn
[27] = rivastigmine 0.75 μmol/L + antipsychotic at TPCmax, ComboSyn
[28] = rivastigmine 1 μmol/L + antipsychotic at TPCmax, ComboSyn
[29] = rivastigmine 2.5 μmol/L + antipsychotic at TPCmax, ComboSyn
[30] = rivastigmine 5 μmol/L + antipsychotic at TPCmax, ComboSyn

Sequence of AChE (P22303 32-617 isoform P22303-2 limits assumed): as above

Row | Structure (SMILES) | CI (combination index), AChE (AChE; [4]) | CI (combination index), AChE (AChE; [5]) | CI (combination index), AChE (AChE; [6]) | CI (combination index), AChE (AChE; [7]) | CI (combination index), AChE (AChE; [8]) | CI (combination index), AChE (AChE; [9]) | CI (combination index), AChE (AChE; [10]) | CI (combination index), AChE (AChE; [11]) | CI (combination index), AChE (AChE; [12]) | CI (combination index), AChE (AChE; [13]) | CI (combination index), AChE (AChE; [14]) | CI (combination index), AChE (AChE; [15]) | CI (combination index), AChE (AChE; [16]) | CI (combination index), BuChE (BuChE; [17]) | CI (combination index), BuChE (BuChE; [18]) | CI (combination index), BuChE (BuChE; [19]) | CI (combination index), BuChE (BuChE; [20]) | CI (combination index), BuChE (BuChE; [21]) | CI (combination index), BuChE (BuChE; [22]) | CI (combination index), BuChE (BuChE; [23]) | other results
1 | O=C(CCCN1CCC(O)(c2ccc(Cl)cc2)CC1)c1ccc(F)cc1 [Haloperidol, haloperidol] | > 2.50 | > 2.50 | > 2.50 | 0.37 | 0.09 | 0.39 | 0.55 | 0.60 | 0.70 | 0.71 | 0.79 | 0.86 | 0.82 | 0.71 | 0.67 | 0.79 | 0.77 | 0.84 | 0.87 | 0.61 | effect on Aβ aggregation within 90 min of incubation ([1]; both tested concentrations (½ TPC and TPC)): ceases to significantly inhibit; CI (combination index), BuChE (BuChE; [24]): 0.44; CI (combination index), BuChE (BuChE; [25]): 0.67; CI (combination index), BuChE (BuChE; [26]): 0.87; CI (combination index), BuChE (BuChE; [27]): 1.06; CI (combination index), BuChE (BuChE; [28]): 1.03; CI (combination index), BuChE (BuChE; [29]): 1.19; CI (combination index), BuChE (BuChE; [30]): 1.22; decrease of BuChE activity ([2]; 100 µg/L): 9.6 ± 2.3%; BuChE reaction velocity ([2]; 100 µg/L, control 0.252 ± 0.022 A/min): 0.228 ± 0.021 A/min; effect on BuChE activity ([2]; therapeutic concentrations): do not affect; effect on AChE activity ([3]; therapeutic concentrations): do not affect
2 | O=C1O[C@H]([C@@H](O)CO)C(O)=C1O [AA, ascorbic acid] |  |  |  |  |  |  |  |  |  |  |  |  |  |  |  |  |  |  |  |  | viability at 10 µg/mL (astrocytes; Homo sapiens, Astrocyte, 10 μg/mL, AAPH 15 mmol/L): 72.9%; viability at 10 µg/mL (HUVEC cells; Homo sapiens, HUVEC, 10 μg/mL): 81 ± 3.4%
3 | O=c1[nH]c2ccccc2n1C1CCN(CCCC(c2ccc(F)cc2)c2ccc(F)cc2)CC1 [Pimozide, pimozide] | 0.50 | 0.63 | 0.62 | 0.65 | 0.68 | 0.26 | 0.37 | 0.38 | 0.47 | 0.56 | 0.57 | 0.62 | 0.65 | 0.57 | 0.55 | 0.78 | 0.76 | 0.91 | 0.79 | > 2.50 | astrocyte viability compared with the control (pure AAPH) (astrocytes; benperidol 5 and 10 μg/L, penfluridol 12.5 μg/L, pimozide 15 μg/L, promazine 25 and 50 μg/L): statistically significant increase; viability of HUVEC under AAPH (HUVEC cells; TPC (bromperidol 25 μg/L, quetiapine 400 μg/L)): 65.2%; viability of HUVEC under AAPH (HUVEC cells; ½ × TPC (bromperidol 12.5 μg/L, quetiapine 200 μg/L)): 64.2%; effect on Aβ aggregation after a longer incubation time ([1]; 24 and 48 h, both tested concentrations): substantially inhibit; CI (combination index), BuChE (BuChE; [24]): > 2.50; CI (combination index), BuChE (BuChE; [25]): > 2.50; CI (combination index), BuChE (BuChE; [26]): > 2.50; CI (combination index), BuChE (BuChE; [27]): > 2.50; CI (combination index), BuChE (BuChE; [28]): > 2.50; CI (combination index), BuChE (BuChE; [29]): > 2.50; CI (combination index), BuChE (BuChE; [30]): > 2.50; CI (combination index), BuChE (BuChE; rivastigmine (0.05–5 µmol/L) / pimozide at TPCmax, beyond the scale of Figure 5B): above 2.5; AChE reaction velocity ([3]; 25 µg/L): 0.253 ± 0.012 A/min; AChE reaction velocity ([3]; 100 µg/L): 0.248 ± 0.009 A/min
